{"source": "patent US20240382451A1", "about": "“ORGANONITRO AND SULFOXYALKYL ORGANONITRO COMPOUNDS FOR USE IN TREATING MEDICAL DISORDERS” (EpicentRx, Inc., priority 2021, published 2024)", "key": {"[1]": {"test_system": "C57BL/6 mice", "experiment": "Dextran sulfate sodium (DSS) induced colitis in mice", "assay_type": "in vivo, mouse", "conditions": "2% or 4% DSS for 9 days, 5 or 10 mg/kg", "text": "Colitis was induced in C57BL/6 mice with 2% or 4% dextran sulfate sodium (DSS; 40 kDa) dissolved in drinking water given ad libitum for 9 days. Control mice were given filtered water. FIG. 6A depicts changes in mice body weight over a 9-day period for each of the three groups: (i) control (filtered water), (ii) 2% DSS, and (iii) 4% DSS. FIG. 6B depicts colon length of mice in each group after the 9-day period.\nFIGS. 7A and 7B depict changes in mice body weight over a 9-day period for each of the six groups: (i) 2% DSS+vehicle, (ii) 2% DSS+RRx-001 (5 mg/kg), and (iii) 2% DSS+RRx-001 (10 mg/kg) in FIG. 7A; and (iv) 4% DSS+vehicle, (v) 4% DSS+RRx-001 (5 mg/kg), and (vi) 4% DSS+RRx-001 (10 mg/kg) in FIG. 7B. While the 2% or 4% DSS was given ad libitum for 9 days as described above, vehicle, 5 mg/kg RRx-001, or 10 mg/kg RRx-001 was given as intravascular injections of pre-mixed blood formulations every other day during the 9-day period. […] FIGS. 7C and 7D depict colon length of mice in each of the six groups. […] FIGS. 7E and 7F depict serum IL-1β levels in mice in each of the six groups. […] FIGS. 7G and 7H depict colon homogenate IL-1β levels in mice in each of the six groups. FIGS. 7I and 7J depict colon homogenate IL-1β levels relative to the average IL-1β level of the control (i.e., DSS+vehicle) in mice in each of the six groups.\nFIGS. 8A and 8B depict the changes in mice body weight over the 9-day period for each of the six groups: (i) 2% DSS+vehicle. (ii) 2% DSS+RRx-001 (5 mg/kg), and (iii) 2% DSS+RRx-001 (10 mg/kg) in FIG. 8A; and (iv) 4% DSS+vehicle, (v) 4% DSS+RRx-001 (5 mg/kg), and (vi) 4% DSS+RRx-001 (10 mg/kg) in FIG. 8B. While the 2% or 4% DSS was given ad libitum for 9 days as described above, vehicle, 5 mg/kg RRx-001, or 10 mg/kg RRx-001 was given as intraperitoneal injections every other day during the 9-day period. […] FIGS. 8C and 8D depict colon length of mice in each of the six groups. […] FIGS. 8E and 8F depict serum IL-1β levels in mice in each of the six groups. […] FIGS. 8G and 8H depict colon homogenate IL-1β levels in mice in each of the six groups."}, "[2]": {"test_system": "3×Tg-AD mice", "experiment": "Oxidative stress markers and amyloid plaque density in aged 3×Tg-AD mice", "assay_type": "in vivo, mouse", "conditions": "2 mg/kg intraperitoneal once weekly for 3 months", "method": "(§1) The neuroprotective effects of RRx-001 administration on Alzheimer's Disease (AD), which has been linked to aberrant NLR family pyrin domain containing 3 (NLRP3) activation, were evaluated via intraperitoneal injection once weekly for 3 months on aged (18-21 months old) homozygous triple transgenic AD mouse model (3×Tg-AD, Jackson Labs). 3×Tg mice received either 2 mg/kg RRx-001 (n=3) or vehicle (n=3), and were evaluated against control non-transgenic mice (NonTg, Jackson Labs) that were untreated (n=3)."}, "[3]": {"test_system": "3×Tg-AD mice", "experiment": "Morris water maze test in aged triple transgenic Alzheimer's disease mouse model", "assay_type": "in vivo", "conditions": "2 mg/kg intraperitoneal once weekly for 3 months", "method": "as §1\nFive days after the last treatment, the mice were tested using a Morris water maze test. The next week, the mice were exposed to an elevated maze test. The latency to reach the exact hidden platform location on the Morris water maze test (FIG. 1A) and the number of crossings of the platform target quadrant (FIG. 1B) were recorded."}, "[4]": {"test_system": "bone marrow derived macrophages (BMDMs)", "experiment": "LPS-primed bone marrow derived macrophages: cytokine expression, IL-1β release, cytosolic Ca2+", "assay_type": "cell-based", "conditions": "BMDMs primed with LPS 50 ng/mL for 30 minutes, then 0.5 μM RRx-001 for 4 hours", "method": "Bone marrow derived macrophages (BMDMs) were primed with LPS (50 ng/mL) for 30 minutes before being treated with RRx-001 (0.5 μM) for 4 hours. FIG. 4A depicts the expression levels of IFN-γ, IL-12, TNF-α, and IL-1β from the three groups: (i) control (not primed with LPS), (ii) LPS+vehicle (primed with LPS but not treated with RRx-001), (iii) and LPS+RRx-001 (primed with LPS and treated with RRx-001). FIG. 4B depicts IL-1β release over time from the three groups. FIG. 4C depicts cytosolic Ca^2+ levels over time for the three groups."}, "[5]": {"test_system": "bone marrow derived macrophages (BMDMs)", "experiment": "DSS-primed bone marrow derived macrophages: IL-1β release", "assay_type": "cell-based", "conditions": "BMDMs primed with DSS, 0.5 μM or 1.0 μM RRx-001", "method": "FIG. 5 depicts IL-1β release from the four groups of bone marrow derived macrophages (BMDMs): (i) control (not primed with DSS). (ii) DSS+vehicle (primed with DS but not treated with RRx-001), (iii) DSS+RRx-001 (0.5 μM; primed with DSS and treated with 0.5 μM RRx-001), and (iv) DSS+RRx-001 (1.0 μM; primed with DSS and treated with 1.0 μM RRx-001)."}, "[6]": {"conditions": "intraperitoneal injections every other day"}, "[7]": {"conditions": "intravascular injections of pre-mixed blood formulations every other day"}}}
{"smiles": "O=C(CBr)N1CC([N+](=O)[O-])([N+](=O)[O-])C1", "note": "[RRx-001, 2-bromo-1-(3,3-dinitroazetidin-1-yl)ethanone]", "values": [{"measurement": "DSS-induced expression of colon homogenate IL-1β", "setting": "[1]; [6]", "result": "reduces"}, {"measurement": "DSS-induced expression of serum IL-1β", "setting": "[1]; [6]", "result": "reduces"}, {"measurement": "body weight loss due to DSS induced colitis", "setting": "[1]; [6]", "result": "significantly mitigates"}, {"measurement": "colon length reduction due to DSS induced colitis", "setting": "[1]; [6]", "result": "mitigates"}, {"measurement": "DSS-induced expression of colon homogenate IL-1β", "setting": "[1]; [7]", "result": "reduces"}, {"measurement": "DSS-induced expression of serum IL-1β", "setting": "[1]; [7]", "result": "reduces"}, {"measurement": "body weight loss due to DSS induced colitis", "setting": "[1]; [7]", "result": "significantly mitigates"}, {"measurement": "colon length reduction due to DSS induced colitis", "setting": "[1]; [7]", "result": "mitigates"}, {"measurement": "amyloid plaque density", "setting": "[2]", "result": "decrease"}, {"measurement": "lipid peroxidation (thiobarbituric acid-reactive substance (TBAR) levels)", "setting": "[2]", "result": "decrease"}, {"measurement": "reduced glutathione (GSH) compared to glutathione disulfide (GSSG)", "setting": "[2]", "result": "significant increase"}, {"measurement": "spatial learning tasks (trend in latency across trials)", "setting": "[3]", "result": "improvement"}, {"measurement": "latency to locate the platform on the Morris water maze test", "setting": "[3]; vs vehicle", "result": "significantly reduce"}, {"measurement": "calcium accumulation in activated macrophages (cytosolic Ca2+ levels)", "setting": "[4]", "result": "prevents calcium accumulation"}, {"measurement": "inflammation-driven expression of certain cytokines such as IL-1β", "setting": "[4]", "result": "significantly reduces"}, {"measurement": "inflammatory effect of DSS (IL-1β release)", "setting": "[5]", "result": "significantly reduces"}]}
